US20240358693A1, “METHODS OF TREATING PAIN” (Aisa Pharma, Inc., priority 2023, published 2024)

Test system: participants with Raynaud's Phenomenon secondary mostly to systemic sclerosis (SSc-RP)
Test: Frequency of weekly symptomatic RP attacks (patient diary), Phase 2a study Part A
Assay type: in vivo, human
Conditions: ITT Part A
Description: A randomized, placebo-controlled phase 2a study was performed and is in progress to assess the safety and efficacy of cilnidipine (10 mg and 20 mg) alone and in combination with 5 mg tadalafil, in participants with diagnosis of scleroderma and/or secondary Raynaud's disease.
The relevant metrics measured by this tool daily are: • Study medication • SSc-RP symptoms (Reporting an attack including duration of attack) • Severity of the attack considering all symptoms of the attack e.g., tingling, numbness, pain, color changes (VAS 0-10 cm scale) • Participant's location at the time of the attack (inside home/outside home) • Selecting symptoms experienced during the attack (tingling, numbness, pain, color changes, other) • Pain rating during the attack (11-point Likert scale) • The RCS based on how much difficulty participants had with Raynaud's today, how many attacks the participant had, and how long they lasted. Participants will also be asked to consider how much pain, numbness, or other symptoms the Raynaud's caused in fingers (including painful sores), and how much the Raynaud's alone affected the use of hands today (VAS 0-10 cm scale).
Percent change from baseline evaluation for frequency of weekly RP attacks were or will be used as the primary efficacy variable. The sponsor-developed participant-informed diary will be used to record data. Frequency of weekly RP attacks is defined as the total number of RP attacks divided by the number of days with available diary data within the last 7 days of each dosing period then multiplied by 7. Total number of RP attacks during the last 7 days of screening period divided by the number of days with available data then multiplied by 7 will be used as baseline for the analysis of all periods. The variable will be calculated as follows:
Percentage change={(weekly RP attacks for the last 7 days of each dosing period−Baseline weekly RP attacks)/Baseline weekly RP attacks}*100%.
Absolute change=weekly RP attacks for the last 7 days of each dosing period−Baseline weekly RP attacks
Percent change from baseline evaluation for frequency of weekly RP attacks was and will be the primary efficacy endpoint. Frequency of weekly RP attacks is defined as the total number of RP attacks divided by the number of days with available diary data within the last 7 days of each dosing period then multiplied by 7. Total number of RP attacks during the last 7 days of screening period divided by the number of days with available data then multiplied by 7 will be used as baseline for the analysis of all periods.
The following data was actually obtained in accordance with the protocol and plan delineated in Examples 1 and 2. The accompanying data involved 11 patients out of the planned 76 patient study. The study was done in patients with scleroderma (systemic sclerosis) who had relatively frequent Raynaud symptoms as they needed to average at least one attack per day during a screening period of up to two weeks. In this first phase of this double-blind placebo-controlled, prospective randomized study, patients were treated in parallel and after meeting study criteria were randomized to receive either placebo, cilnidipine 10 mg daily, cilnidipine 20 mg daily, tadalafil 5 mg daily, cilnidipine 10 mg plus 5 mg of tadalafil, or cilnidipine 20 mg plus 5 mg of tadalafil.

[1] = Cilnidipine 10 mg, n 1, Excluding Outliers
[2] = Cilnidipine 10 mg, n 1, by Baseline RCS, 1st block (RCS <5.0)
[3] = Cilnidipine 20 mg, n 2, Excluding Outliers
[4] = Cilnidipine 20 mg, n 2, by Baseline RCS, 1st block (RCS <5.0)
[5] = Pooled Cilnidipine 10 mg and Cilnidipine 10 mg + Tadalafil 5 mg (N = 3)
[6] = Pooled Cilnidipine 10 mg and Cilnidipine 10 mg + Tadalafil 5 mg, n 1, by Baseline RCS, 2nd block (RCS >5.0)
[7] = Pooled Cilnidipine 10 mg and Cilnidipine 10 mg + Tadalafil 5 mg, n 2, by Baseline RCS, 1st block (RCS <5.0)
[8] = Pooled Cilnidipine 10 mg and Cilnidipine 10 mg + Tadalafil 5 mg, n 3, Excluding Outliers
[9] = Pooled Cilnidipine 20 mg and Cilnidipine 20 mg + Tadalafil 5 mg (N = 4)
[10] = Pooled Cilnidipine 20 mg and Cilnidipine 20 mg + Tadalafil 5 mg, n 1, by Baseline RCS, 2nd block (RCS >5.0)
[11] = Pooled Cilnidipine 20 mg and Cilnidipine 20 mg + Tadalafil 5 mg, n 3, by Baseline RCS, 1st block (RCS <5.0)
[12] = Pooled Cilnidipine 20 mg and Cilnidipine 20 mg + Tadalafil 5 mg, n 4, Excluding Outliers

## COCCOC(=O)C1=C(C)NC(C)=C(C(=O)OC/C=C/c2ccccc2)C1c1cccc([N+](=O)[O-])c1 (centres unmarked) [Cilnidipine, cilnidipine]
Cilnidipine 10 mg (N = 1)
  Weekly Symptomatic RP Attacks Change from Baseline, Mean: −7.00
  Weekly Symptomatic RP Attacks Change from Baseline, Median: −7.00
  Weekly Symptomatic RP Attacks Percent Change from Baseline, Mean: −33.33%
  Weekly Symptomatic RP Attacks Percent Change from Baseline, Median: −33.33%
  Weekly Symptomatic RP Attacks, Mean: 14.00
  Weekly Symptomatic RP Attacks, Median: 14.00
[1]
  Weekly Symptomatic RP Attacks Change from Baseline, Mean (SD): −7.00
  Weekly Symptomatic RP Attacks Change from Baseline, Median: −7.00
  Weekly Symptomatic RP Attacks Percent Change from Baseline, Mean (SD): −33.33%
  Weekly Symptomatic RP Attacks Percent Change from Baseline, Median: −33.33%
  Weekly Symptomatic RP Attacks, Mean (SD): 14.00
  Weekly Symptomatic RP Attacks, Median: 14.00
[2]
  Weekly Symptomatic RP Attacks Change from Baseline, Mean (SD): −7.00
  Weekly Symptomatic RP Attacks Change from Baseline, Median: −7.00
  Weekly Symptomatic RP Attacks Percent Change from Baseline, Mean (SD): −33.33%
  Weekly Symptomatic RP Attacks Percent Change from Baseline, Median: −33.33%
  Weekly Symptomatic RP Attacks, Mean (SD): 14.00
  Weekly Symptomatic RP Attacks, Median: 14.00
Cilnidipine 20 mg (N = 2)
  Weekly Symptomatic RP Attacks Change from Baseline, Mean: −4.50
  Weekly Symptomatic RP Attacks Change from Baseline, Median: −4.50
  Weekly Symptomatic RP Attacks Percent Change from Baseline, Mean: −33.73%
  Weekly Symptomatic RP Attacks Percent Change from Baseline, Median: −33.73%
  Weekly Symptomatic RP Attacks, Mean: 8.00
  Weekly Symptomatic RP Attacks, Median: 8.00
[3]
  Weekly Symptomatic RP Attacks Change from Baseline, Mean (SD): −4.50 (3.536)
  Weekly Symptomatic RP Attacks Change from Baseline, Median: −4.50
  Weekly Symptomatic RP Attacks Percent Change from Baseline, Mean (SD): −33.73 (7.296) %
  Weekly Symptomatic RP Attacks Percent Change from Baseline, Median: −33.73%
  Weekly Symptomatic RP Attacks, Mean (SD): 8.00 (4.243)
  Weekly Symptomatic RP Attacks, Median: 8.00
[4]
  Weekly Symptomatic RP Attacks Change from Baseline, Mean (SD): −4.50 (3.536)
  Weekly Symptomatic RP Attacks Change from Baseline, Median: −4.50
  Weekly Symptomatic RP Attacks Percent Change from Baseline, Mean (SD): −33.73 (7.296) %
  Weekly Symptomatic RP Attacks Percent Change from Baseline, Median: −33.73%
  Weekly Symptomatic RP Attacks, Mean (SD): 8.00 (4.243)
  Weekly Symptomatic RP Attacks, Median: 8.00
[5]
  Weekly Symptomatic RP Attacks Change from Baseline, Mean: −4.67
  Weekly Symptomatic RP Attacks Change from Baseline, Median: −4.00
  Weekly Symptomatic RP Attacks Percent Change from Baseline, Mean: −40.21%
  Weekly Symptomatic RP Attacks Percent Change from Baseline, Median: −42.86%
  Weekly Symptomatic RP Attacks, Mean: 7.67
  Weekly Symptomatic RP Attacks, Median: 5.00
[6]
  Weekly Symptomatic RP Attacks Change from Baseline, Mean (SD): −3.00
  Weekly Symptomatic RP Attacks Change from Baseline, Median: −3.00
  Weekly Symptomatic RP Attacks Percent Change from Baseline, Mean (SD): −42.86%
  Weekly Symptomatic RP Attacks Percent Change from Baseline, Median: −42.86%
  Weekly Symptomatic RP Attacks, Mean (SD): 4.00
  Weekly Symptomatic RP Attacks, Median: 4.00
[7]
  Weekly Symptomatic RP Attacks Change from Baseline, Mean (SD): −5.50 (2.121)
  Weekly Symptomatic RP Attacks Change from Baseline, Median: −5.50
  Weekly Symptomatic RP Attacks Percent Change from Baseline, Mean (SD): −38.89 (7.857) %
  Weekly Symptomatic RP Attacks Percent Change from Baseline, Median: −38.89%
  Weekly Symptomatic RP Attacks, Mean (SD): 9.50 (6.364)
  Weekly Symptomatic RP Attacks, Median: 9.50
[8]
  Weekly Symptomatic RP Attacks Change from Baseline, Mean (SD): −4.67 (2.082)
  Weekly Symptomatic RP Attacks Change from Baseline, Median: −4.00
  Weekly Symptomatic RP Attacks Percent Change from Baseline, Mean (SD): −40.21 (6.009) %
  Weekly Symptomatic RP Attacks Percent Change from Baseline, Median: −42.86%
  Weekly Symptomatic RP Attacks, Mean (SD): 7.67 (5.508)
  Weekly Symptomatic RP Attacks, Median: 5.00
[9]
  Weekly Symptomatic RP Attacks Change from Baseline, Mean: −3.63
  Weekly Symptomatic RP Attacks Change from Baseline, Median: −3.50
  Weekly Symptomatic RP Attacks Percent Change from Baseline, Mean: −25.00%
  Weekly Symptomatic RP Attacks Percent Change from Baseline, Median: −28.17%
  Weekly Symptomatic RP Attacks, Mean: 9.75
  Weekly Symptomatic RP Attacks, Median: 10.50
[10]
  Weekly Symptomatic RP Attacks Change from Baseline, Mean (SD): −0.50
  Weekly Symptomatic RP Attacks Change from Baseline, Median: −0.50
  Weekly Symptomatic RP Attacks Percent Change from Baseline, Mean (SD): −4.76%
  Weekly Symptomatic RP Attacks Percent Change from Baseline, Median: −4.76%
  Weekly Symptomatic RP Attacks, Mean (SD): 10.00
  Weekly Symptomatic RP Attacks, Median: 10.00
[11]
  Weekly Symptomatic RP Attacks Change from Baseline, Mean (SD): −4.67 (2.517)
  Weekly Symptomatic RP Attacks Change from Baseline, Median: −5.00
  Weekly Symptomatic RP Attacks Percent Change from Baseline, Mean (SD): −31.75 (6.199) %
  Weekly Symptomatic RP Attacks Percent Change from Baseline, Median: −28.57%
  Weekly Symptomatic RP Attacks, Mean (SD): 9.67 (4.163)
  Weekly Symptomatic RP Attacks, Median: 11.00
[12]
  Weekly Symptomatic RP Attacks Change from Baseline, Mean (SD): −3.63 (2.926)
  Weekly Symptomatic RP Attacks Change from Baseline, Median: −3.50
